Test results published in PubChem BioAssay (NCI).
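Briefly, cells in 96-well plates were exposed to five compound concentrations for 48 h, and endpoints were estimated by linear interpolation. At the TGI there is no net growth.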

Experiments:
Test in all cases: NCI-60 cell line screen, 48 h
[1] = test system: IGROV1 ovarian
[2] = test system: NCI/ADR-RES ovarian
[3] = test system: MALME-3M melanoma
[4] = test system: SN12C renal
[5] = test system: MDA-MB-435
[6] = test system: MDA-N
[7] = test system: SNB-19 CNS
[8] = test system: A549 NSCLC
[9] = test system: PC-3 prostate
[10] = test system: CAKI-1 renal
[11] = test system: LOX IMVI melanoma
[12] = test system: NCI-H226 lung
[13] = test system: BT-549 breast
[14] = test system: OVCAR-4 ovarian
[15] = test system: A498 renal
[16] = test system: KM12 colon
[17] = test system: UO-31 renal
[18] = test system: SK-MEL-2 melanoma
[19] = test system: 786-0 renal
[20] = test system: OVCAR-3 ovarian
[21] = test system: DU-145 prostate
[22] = test system: OVCAR-8 ovarian
[23] = test system: RPMI-8226 leukemia
[24] = test system: SK-OV-3 ovarian
[25] = test system: M14 melanoma
[26] = test system: K-562 leukemia
[27] = test system: UACC-257 melanoma
[28] = test system: OVCAR-5 ovarian
[29] = test system: NCI-H522 lung
[30] = test system: HCT-116 colon
[31] = test system: ACHN renal
[32] = test system: SR leukemia
[33] = test system: MDA-MB-231 breast
[34] = test system: HOP-92 NSCLC
[35] = test system: EKVX NSCLC
[36] = test system: RXF 393 renal
[37] = test system: MOLT-4 leukemia
[38] = test system: SW-620 colon
[39] = test system: NCI-H23 lung
[40] = test system: COLO 205 colon
[41] = test system: CCRF-CEM leukemia
[42] = test system: SNB-75 CNS
[43] = test system: HL-60(TB) leukemia
[44] = test system: HCC-2998 colon
[45] = test system: TK-10 renal
[46] = test system: SF-295 CNS
[47] = test system: U251 CNS
[48] = test system: SK-MEL-5 melanoma
[49] = test system: MCF7 breast
[50] = test system: UACC-62 melanoma
[51] = test system: HCT-15 colon
[52] = test system: SF-539 CNS

For `CC(=O)C1=CN=C2C(=O)N(c3ccccc3)N(C)C12C` (configuration not stated), which TGI [1] is on record?
The TGI was over 100 µM.

And the TGI [2]?
Its TGI is over 100 µM.

And the TGI [3]?
The TGI was over 100 µM.

And the TGI [4]?
Its TGI is over 100 µM.

And the TGI [5]?
The TGI was over 100 µM.

And the TGI [6]?
The TGI was over 100 µM.

What about the TGI [7] of the same compound?
The TGI was over 100 µM.

And the TGI [8]?
Its TGI is over 100 µM.

What about the TGI [9] of the same compound?
Its TGI is over 100 µM.

And the TGI [10]?
Its TGI is over 100 µM.

And the TGI [11]?
The TGI was over 100 µM.

What about the TGI [12] of the same compound?
Its TGI is over 100 µM.

What about the TGI [13] of the same compound?
Its TGI is over 100 µM.

What about the TGI [14] of the same compound?
Its TGI is over 100 µM.

What about the TGI [15] of the same compound?
Its TGI is over 100 µM.

And the TGI [16]?
The TGI was 46.8 µM.

What about the TGI [17] of the same compound?
Its TGI is over 100 µM.

What about the TGI [18] of the same compound?
The TGI was over 100 µM.

And the TGI [19]?
Its TGI is over 100 µM.

What about the TGI [20] of the same compound?
The TGI was over 100 µM.

What about the TGI [21] of the same compound?
The TGI was over 100 µM.

What about the TGI [22] of the same compound?
Its TGI is over 100 µM.

And the TGI [23]?
Its TGI is over 100 µM.

And the TGI [24]?
The TGI was over 100 µM.

And the TGI [25]?
Its TGI is over 100 µM.

And the TGI [26]?
The TGI was over 100 µM.

What about the TGI [27] of the same compound?
The TGI was over 100 µM.

What about the TGI [28] of the same compound?
Its TGI is over 100 µM.

What about the TGI [29] of the same compound?
Its TGI is over 100 µM.

And the TGI [30]?
The TGI was over 100 µM.

What about the TGI [31] of the same compound?
The TGI was over 100 µM.

What about the TGI [32] of the same compound?
The TGI was over 100 µM.

What about the TGI [33] of the same compound?
Its TGI is over 100 µM.

What about the TGI [34] of the same compound?
The TGI was over 100 µM.

And the TGI [35]?
The TGI was over 100 µM.

And the TGI [36]?
The TGI was over 100 µM.

What about the TGI [37] of the same compound?
The TGI was over 100 µM.

What about the TGI [38] of the same compound?
The TGI was over 100 µM.

And the TGI [39]?
Its TGI is over 100 µM.

What about the TGI [40] of the same compound?
Its TGI is over 100 µM.

What about the TGI [41] of the same compound?
The TGI was over 100 µM.

And the TGI [42]?
The TGI was over 100 µM.

And the TGI [43]?
Its TGI is over 100 µM.

What about the TGI [44] of the same compound?
The TGI was over 100 µM.

And the TGI [45]?
The TGI was over 100 µM.

What about the TGI [46] of the same compound?
The TGI was over 100 µM.

And the TGI [47]?
The TGI was over 100 µM.

And the TGI [48]?
The TGI was over 100 µM.

What about the TGI [49] of the same compound?
Its TGI is over 100 µM.

And the TGI [50]?
The TGI was over 100 µM.

What about the TGI [51] of the same compound?
The TGI was over 100 µM.

What about the TGI [52] of the same compound?
Its TGI is over 100 µM.
